Here are results for 5 molecules from patent US9199914B2, “Multiple substituted fluoromethanes as selective and bioactive isosteres” (MEH ASSOCIATES, INC., priority 2010, dated 2015).

Values after ≈ are worked out from the molar mass of the structure shown. Where two headings read alike, the source gives them in different places.

Holding throughout (assay type): cell-based
Experiment [1] concerns L-6 (rat skeletal myoblast cells). The experiment can be described thus: cells.
Experiment [2] concerns Trypanosoma brucei rhodesiense; STIB 900. Nature of the experiment: microbe, parasite or virus in culture.
The subject of experiment [3] is T. cruzi Tulahuen C2C4, containing the Lac Z gene. The experiment can be described thus: In vitro sensitivity assay: T. cruzi (Lac Z / CPRG, in L-6 cells). The conditions noted are these: Trypanosoma cruzi, L6; Tulahuen C4, amastigotes in L-6 cells.
The next experiment relates to Plasmodium falciparum K1. Nature of the experiment: microbe, parasite or virus in culture.
Experiment [4] concerns L. donovani MHOM-ET-67/L82, axenic amastigotes. Nature of the experiment: In vitro sensitivity assay: axenic Leishmania donovani (Resazurin).
[5] abbreviates: MHOM-ET-67/L82, amastigotes, 72 hours, read-out: IC50 Values L. donovani.

Regarding `O=C(O)CNCCC(F)(F)F` [MEH-002, (3,3,3-Trifluoro-propylamino)-acetic acid], the IC50 in experiment [1] (L6 cells, read-out: IC50 Values Cytoxicity) was > 90 µg/mL; in experiment [2] (STIB 900, trypomastigotes, 72 h, read-out: IC50 Values T.b. rhodensiense), 10.3 µg/mL (≈ 60.2 µM); in experiment [3], > 90 µg/mL; in the experiment on Plasmodium falciparum K1 (K1, IEF, read-out: IC50 Values P. falciparum), > 5 µg/mL; in experiment [4] (setting [5]), > 90 µg/mL.
On to `CCN(CC)CCCC(C)Nc1ccnc2cc(Cl)ccc12` (stereo not shown) [chloroquinine, Chloroquine], for which the IC50 came to 0.059 µg/mL (≈ 0.184 µM) in the experiment with Plasmodium falciparum K1 (K1, read-out: IC50 Values P. falciparum) and 0.065 µg/mL (≈ 0.203 µM) with Plasmodium falciparum K1 (K1, read-out: average IC50).
`Nc1nc(N)nc(Nc2ccc([As]3SCC(CO)S3)cc2)n1` (stereo not shown) [melarsoprol]: the IC50 is 0.003 µg/mL in experiment [2] (72 h, read-out: IC50 Values T.b. rhodensiense) and 0.004 µg/mL in experiment [2] (read-out: average IC50).
For the molecule `CCCCCCCCCCCCCCCCOP(=O)([O-])OCC[N+](C)(C)C` [miltefosine], the IC50 in experiment [4] (setting [5]) is 0.178 µg/mL (≈ 0.437 µM); in experiment [4] (standard drug, protocol value, read-out: average IC50) it was 0.131 µg/mL (≈ 0.321 µM).
`COc1cc([C@@H]2c3cc4c(cc3[C@H](O)[C@H]3COC(=O)[C@H]23)OCO4)cc(OC)c1OC` [podophyllotoxin]: the IC50 in experiment [1] (L6, read-out: IC50 Values Cytoxicity) worked out at 0.007 µg/mL (≈ 0.0169 µM); in experiment [1] (Myoblast, read-out: average IC50) it was 0.006 µg/mL (≈ 0.0145 µM).
